Assay results: US10233146B2, “Acetylenic cyanoenones as therapeutics for inflammation and carcinogenesis” (THE RESEARCH FOUNDATION FOR THE STATE UNIVERSITY OF NEW YORK, priority 2015, dated 2019)
“Also recorded” adds a separate entry of the source.

Key:
NQO1 [1] = experiment: Induction of NQO1 in Hepa1c1c7 murine hepatoma cells; type: cell-based; conditions: for EC (2-fold NQO1 activity): Mus musculus, Hepa-1c1c7, Hepa1c1c7 cells, 48 h treatment, read-out: NQO1 CD (concentration required to double the specific enzyme activity of NQO1)
Text: In this assay, the concentration required to double (CD value) the specific enzyme activity of NQO1 is used to quantify inducer potency. […] Dinkova-KOstova, A. T. et al. 2012). […] These compounds may be more robust inducers than monocyclic compounds. [table]

NQO1 [2] = conditions: Hepa1c1c murine hepatoma cells; cited from earlier work
[3] = tested on: NQO1 and glutathione S-transferases; conditions: mice, 9.2 mg per kg of food in the diet; cited from earlier work
Keap1/Nrf2/ARE pathway = conditions: topical daily 200 nmol, five days per week for four weeks, cited from earlier work
[4] = UV study of Michael adduct formation with chloride anion of the buffer (without DTT); type: physicochemical; conditions: 0.1 mM compound, phosphate buffer saline-1% ethanol (pH 7.4)
Protocol: 1. UV Studies on Monocyclic and Bicyclic Compounds 4-9 with DTT Compounds 5-8 with DTT gave similar UV spectra to those of 3 (Taylor, S. K. et al. 1988). Compounds 5-8 have local maximum absorptions at 332-338 nm upon the addition of DTT (1 and 10 equiv) under dilute (0.1 mM of the compounds) and neutral aqueous conditions (pH 7.4 phosphate buffered saline-1% ethanol containing 1 mM KH2PO4, 5.6 mM Na2HPO4, and 154 mM NaCl) (Table 1 and FIG. 2). Also, these compounds react with a chloride anion (a much weaker nucleophile than a sulfhydryl group of DTT), which is contained in the buffer solution, to give Michael adducts whose local maximum absorptions are observed at 320-326 nm. […]

[5] = UV study of Michael adduct formation with DTT; type: physicochemical; conditions: 0.1 mM compound, phosphate buffer saline-1% ethanol (pH 7.4), rt; for A (absorbance) With DTT (1 equiv) / λmax With DTT (1 equiv): 0.1 mM DTT; for A (absorbance) With DTT (10 equiv) / λmax With DTT (10 equiv): 1 mM DTT
Protocol: Calculation of Approximate Equilibrium Constant (K)
The concentrations of 3, with initial concentration of 0.1 mM, and DTT, with initial concentration of 0.1 mM, in the phosphate buffer are calculated to be 0.0855 mM as follows: (1) The absorbance (A) is 0.956 at 0.1 mM concentration of 3 in deionized water. (2) The A of 3 is 0.817 in the phosphate buffer. (3) The concentrations of 3 and DTT in the buffer are calculated to be 0.0855 mM based on (1) and (2). From these concentrations, the approximate K is calculated as follows: K=[Adduct]/[3]×[DTT]=0.0145×10^−3/[…]=2.0×10^3 (Liters/mol).
Unfortunately, since the λmax of 4-8 was not observed due to the overlapping, we can't calculate the concentrations of the adducts of 4-8 by the same method as for 3. However, since we can speculate that the ε of the adducts of 4-8 is almost similar to that of the adduct of 2, we can calculate the concentrations of the adducts of 4-8 based on the A (0.227 at 0.0145 mM) of the adduct of […] and the A of the adducts of 4-8. For example, the concentration of the adduct of 5 is 0.0145×0.369 (A of the adduct of 5)/0.227=0.0235 (mM). Therefore, the concentrations of 5 and DTT are 0.0765 (mM/each). Thus, K of 5=0.0235×10^−3/0.0765×0.0765×10^−6=4.0×10^3 (Liters/mol). The K of 4 and 6-8 are also calculated using the A (0.227 at 0.0145 mM) of the adduct of 3 and the A of the adducts of 4 and 6-8, respectively.
Chemical reactivity of monocyclic, bicyclic, and tricyclic compounds 4-15 as Michael acceptors was evaluated using UV spectroscopy.
Michael reaction between ethynylcyanodienones with DTT give adducts IV (Scheme 11). Since adducts IV have different UV absorption spectra (λmax 330-380 nm) from those of the corresponding ethynylcyanodienones (λmax 230-320 nm), UV spectroscopy can clarify whether or not the Michael adducts are produced.^6
1. UV Studies on Monocyclic and Bicyclic Compounds 4-9 with DTT Compounds 5-8 with DTT gave similar UV spectra to those of 3 (Taylor, S. K. et al. 1988). Compounds 5-8 have local maximum absorptions at 332-338 nm upon the addition of DTT (1 and 10 equiv) under dilute (0.1 mM of the compounds) and neutral aqueous conditions (pH 7.4 phosphate buffered saline-1% ethanol containing 1 mM KH2PO4, 5.6 mM Na2HPO4, and 154 mM NaCl) (Table 1 and FIG. 2). Also, these compounds react with a chloride anion (a much weaker nucleophile than a sulfhydryl group of DTT), which is contained in the buffer solution, to give Michael adducts whose local maximum absorptions are observed at 320-326 nm.
We have calculated approximate equilibrium constants (K) of these Michael reactions in the solutions of 5-8 with DTT (each initial concentration, 0.1 mM. See the calculation of the equilibrium constants in the Supporting Information). The values of K are approximately 1.0-4.2×10^3 (L/mol), implying that these additions are very strongly favored.
Tricyclic compounds 10-15 react with DTT to give the adducts whose local maximum absorptions are observed at 374-383 nm range (Table 1 and FIG. 2). […] Among phenanthrene derivatives, substitutents at C5 decrease the reactivity.

| Structure (SMILES) | EC (2-fold NQO1 activity) (NQO1 [1]) [µM] | upregulation of NQO1 (NQO1 [2]) | induction of NQO1 and glutathione S-transferases in the stomach, skin, and liver [3] | IC50 (iNOS) [nM] | 6-thioguanine incorporation into DNA of skin, blood, and liver (Keap1/Nrf2/ARE pathway; azathioprine-treated mice) | systemic induction of the Keap1/Nrf2/ARE pathway (Keap1/Nrf2/ARE pathway) | magnitude of NQO1 induction at higher concentrations (NQO1 [1]; FIG. 3, concentrations higher than the CD values) | melting point [°C] | A (absorbance) Without DTT (With Cl^—) [4] | λmax Without DTT (With Cl^—) [4] [nm] | A (absorbance) With DTT (1 equiv) [5] | λmax With DTT (1 equiv) [5] [nm] | A (absorbance) With DTT (10 equiv) [5] | λmax With DTT (10 equiv) [5] [nm] |
| --- | --- | --- | --- | --- | --- | --- | --- | --- | --- | --- | --- | --- | --- | --- |
| C#C[C@]12C=C(C#N)C(=O)C=C1[C@@]1(C)C=C(C#N)C(=O)C(C)(C)[C@@H]1CC2 (racemic) [TBE-31 (1), (±)-(4bS,8aR,10aS)-10a-ethynyl-4b,8,8-trimethyl-3,7-dioxo-3,4b,7,8,8a,9,10, 10a-octahydrophenanthrene-2,6-dicarbonitrile] | 0.0009 | upregulates NAD(P)H: quinone oxidoreductase 1 (NQO1) | profoundly and dose-dependently induces | 1 | decreases | robust systemic induction | – | – | – | – | – | – | – | – |
| C#CC12C=C(C#N)C(=O)C=C1c1ccccc1C2 (stereo not shown) [Compound 14, 9a-Ethynyl-3-oxo-9,9a-dihydro-3H-fluorene-2-carbonitrile] | 0.041 | – | – | 480 | – | – | induce NQO1 more effectively than monocyclic compounds 3-6; also recorded: induces NQO1 to a greater magnitude than 3 and 5 | 202 to 203 | 0.867 | 364 | 0.808 | 377 | 0.820 | 382 |
| C#CC12C=C(C#N)C(=O)C=C1c1c(Cl)cccc1C2 (stereo not shown) [Compound 15, 5-Chloro-9a-ethynyl-3-oxo-9,9a-dihydro-3H-fluorene-2-carbonitrile] | 0.13 | – | – | 800 | – | – | – | 191 to 193 | 1.025 | 369 | 0.819 | 378 | 0.803 | 383 |
